Source: patent publication US20230293535A1, “ERBB/BTK INHIBITORS” (Dizal (Jiangsu) Pharmaceutical Co., Ltd., priority 2018, published 2023)

What was measured:
Assay type in all cases: cell-based
[1] = test system: Ba/F3 EGFR ASV ins cells; test: Cell proliferation, Ba/F3 EGFR ASV ins (CellTiter-Glo, 72 h); details: Ba/F3 EGFR, 72 h, Ba/F3 EGFR ASV ins, 72 h proliferation; read-out: EGFR Exon20 ASV insertion GI50;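 further: IL3-independent Ba/F3 cells transduced with EGFR V769_D770insASV, cellular ATP luminescence after compound exposure, growth relative to DMSO control with the day-0 baseline reading subtracted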
[2] = molecular target: T1, human EGFR exon 20 H773_V774insNPH (Homo sapiens, UniProt P00533, INS773NPH); test: EGFR Exon20 NPH insertion cellular phosphorylation inhibition (MSD pEGFR Y1068/total EGFR); details: Ba/F3 EGFR NPH ins cells, 4 h compound, p-EGFR(Y1068)/total EGFR;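 further: IL3-independent Ba/F3 cells with constitutively phosphorylated EGFR, compound exposure at 37 °C under 5% CO2, electrochemiluminescent MSD measurement of the p-EGFR to total EGFR ratio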
T1 construct: host or cells: Ba/F3
T1 sequence (P00533 with tags, fused parts or gaps INS773NPH): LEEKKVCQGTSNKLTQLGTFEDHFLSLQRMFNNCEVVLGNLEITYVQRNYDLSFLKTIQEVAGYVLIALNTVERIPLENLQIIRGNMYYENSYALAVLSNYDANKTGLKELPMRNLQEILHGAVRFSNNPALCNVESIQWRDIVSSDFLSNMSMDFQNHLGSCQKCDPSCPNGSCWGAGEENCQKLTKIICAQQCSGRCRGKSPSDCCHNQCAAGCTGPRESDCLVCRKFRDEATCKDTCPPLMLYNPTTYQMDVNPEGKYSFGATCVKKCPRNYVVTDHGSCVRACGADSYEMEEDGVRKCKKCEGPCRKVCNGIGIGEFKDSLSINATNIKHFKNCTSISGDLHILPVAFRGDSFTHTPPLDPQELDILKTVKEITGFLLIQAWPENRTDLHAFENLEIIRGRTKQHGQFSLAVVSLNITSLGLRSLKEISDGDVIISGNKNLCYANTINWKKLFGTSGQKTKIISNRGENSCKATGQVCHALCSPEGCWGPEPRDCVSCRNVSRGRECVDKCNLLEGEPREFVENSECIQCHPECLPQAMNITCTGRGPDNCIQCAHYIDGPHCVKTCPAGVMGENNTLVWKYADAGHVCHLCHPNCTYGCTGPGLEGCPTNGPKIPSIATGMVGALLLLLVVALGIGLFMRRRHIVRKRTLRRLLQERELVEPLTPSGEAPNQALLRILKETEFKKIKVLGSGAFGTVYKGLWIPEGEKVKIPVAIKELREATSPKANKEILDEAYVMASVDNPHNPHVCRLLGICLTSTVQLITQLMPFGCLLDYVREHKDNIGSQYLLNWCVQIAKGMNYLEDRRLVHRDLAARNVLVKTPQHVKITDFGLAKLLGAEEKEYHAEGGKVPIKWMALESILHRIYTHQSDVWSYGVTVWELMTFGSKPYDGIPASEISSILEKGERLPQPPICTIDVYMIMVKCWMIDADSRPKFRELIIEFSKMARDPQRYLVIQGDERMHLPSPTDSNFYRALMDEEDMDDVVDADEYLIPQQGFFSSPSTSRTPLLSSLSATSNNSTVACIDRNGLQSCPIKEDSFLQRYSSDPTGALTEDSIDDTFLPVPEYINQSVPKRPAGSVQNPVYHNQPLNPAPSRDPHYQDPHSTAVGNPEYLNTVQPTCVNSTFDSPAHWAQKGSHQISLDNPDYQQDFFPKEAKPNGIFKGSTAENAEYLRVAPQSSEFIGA

[3] = test system: DB cells; test: BTK (wt) cell proliferation, DB (CellTiter-Glo, 72 h); details: Homo sapiens, DB, DB cells, CellTiter-Glo, read-out: Non-BCR activated DB GI50;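 further: DB cells in 384-well plates given a dilution series of compound, viable cells read by ATP luminescence, growth expressed versus DMSO control after subtracting a time-zero plate reading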
[4] = test system: Ri-1 cells; test: BTK (wt) cell proliferation, Ri-1 (CellTiter-Glo, 72 h); details: Ri-1, 72 h, Ri-1 cells, 72 h, CellTiter-Glo; read-out: BTK WT Ri-1 GI50;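 further: viable cells quantified as cellular ATP luminescence, proliferation normalized to a time-zero plate and the DMSO control, compounds tested across a dilution series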
[5] = test system: TMD-8 cells; test: BTK (wt) cell proliferation, TMD-8 (CellTiter-Glo, 72 h); details: Homo sapiens, TMD8, 72 h, TMD-8 cells, 72 h, CellTiter-Glo; read-out: BTK WT TMD-8 GI50;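 further: viable cells quantified by ATP-based luminescence, proliferation expressed as percent of DMSO control after subtracting a time-zero baseline plate read at dosing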
Protocol: OCI-LY-10 at 3,750 cells/well, TMD-8 and Ri-1 at 2,000 cells/well, and DB at 1,250 cells/well, respectively, were sorted into 384-well plates in RPMI1640 medium with 10% FBS. After overnight incubation, all cells were incubated with compound at a series of concentrations. Meanwhile, a duplicated plate of each cell line was prepared for measuring G0 value. The dosed plates were further incubated for 72 hours and the number of viable cells was measured by CellTiter-Glo® Luminescent Cell Viability Assay (Promega), a luminescent method for determining the number of viable cells through measurement of cellular ATP concentration using Envision plate reader (PerkinElmer). The percentage of proliferation was calculated as: % Proliferation = 100 × (G3 value of sample well - G0 value)/(G3 value of DMSO control - G0 value).

[6] = test system: NCI-H1975 EGFR L858R/T790M cells; test: Cell proliferation, NCI-H1975 EGFR L858R/T790M (CellTiter-Glo, 72 h); details: Homo sapiens, NCI-H1975, 72 h, NCI-H1975, 72 h proliferation; read-out: EGFR L858R and T790M mutation GI50;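 further: viable cells quantified by luciferase-based ATP luminescence, proliferation expressed relative to DMSO-treated wells (100%) after subtracting a parallel plate read at the time of dosing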
[7] = molecular target: T2, human EGFR exon 20 V769_D770insASV (Homo sapiens, UniProt P00533, INS769ASV); test: EGFR Exon20 ASV insertion cellular phosphorylation inhibition (MSD pEGFR Y1068/total EGFR); details: Ba/F3 EGFR ASV ins cells, 4 h compound, p-EGFR(Y1068)/total EGFR;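 further: electrochemiluminescent readout on an MSD SECTOR Imager, IL3-independent transduced cells in medium with 1% FBS, compound concentration series at 37 °C and 5% CO2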
T2 construct: expressed in transfected cells; host or cells: Ba/F3 (DSMZ ACC-300), lentiviral transduction, puromycin selection, IL3 depletion
T2 sequence (P00533 with tags, fused parts or gaps INS769ASV): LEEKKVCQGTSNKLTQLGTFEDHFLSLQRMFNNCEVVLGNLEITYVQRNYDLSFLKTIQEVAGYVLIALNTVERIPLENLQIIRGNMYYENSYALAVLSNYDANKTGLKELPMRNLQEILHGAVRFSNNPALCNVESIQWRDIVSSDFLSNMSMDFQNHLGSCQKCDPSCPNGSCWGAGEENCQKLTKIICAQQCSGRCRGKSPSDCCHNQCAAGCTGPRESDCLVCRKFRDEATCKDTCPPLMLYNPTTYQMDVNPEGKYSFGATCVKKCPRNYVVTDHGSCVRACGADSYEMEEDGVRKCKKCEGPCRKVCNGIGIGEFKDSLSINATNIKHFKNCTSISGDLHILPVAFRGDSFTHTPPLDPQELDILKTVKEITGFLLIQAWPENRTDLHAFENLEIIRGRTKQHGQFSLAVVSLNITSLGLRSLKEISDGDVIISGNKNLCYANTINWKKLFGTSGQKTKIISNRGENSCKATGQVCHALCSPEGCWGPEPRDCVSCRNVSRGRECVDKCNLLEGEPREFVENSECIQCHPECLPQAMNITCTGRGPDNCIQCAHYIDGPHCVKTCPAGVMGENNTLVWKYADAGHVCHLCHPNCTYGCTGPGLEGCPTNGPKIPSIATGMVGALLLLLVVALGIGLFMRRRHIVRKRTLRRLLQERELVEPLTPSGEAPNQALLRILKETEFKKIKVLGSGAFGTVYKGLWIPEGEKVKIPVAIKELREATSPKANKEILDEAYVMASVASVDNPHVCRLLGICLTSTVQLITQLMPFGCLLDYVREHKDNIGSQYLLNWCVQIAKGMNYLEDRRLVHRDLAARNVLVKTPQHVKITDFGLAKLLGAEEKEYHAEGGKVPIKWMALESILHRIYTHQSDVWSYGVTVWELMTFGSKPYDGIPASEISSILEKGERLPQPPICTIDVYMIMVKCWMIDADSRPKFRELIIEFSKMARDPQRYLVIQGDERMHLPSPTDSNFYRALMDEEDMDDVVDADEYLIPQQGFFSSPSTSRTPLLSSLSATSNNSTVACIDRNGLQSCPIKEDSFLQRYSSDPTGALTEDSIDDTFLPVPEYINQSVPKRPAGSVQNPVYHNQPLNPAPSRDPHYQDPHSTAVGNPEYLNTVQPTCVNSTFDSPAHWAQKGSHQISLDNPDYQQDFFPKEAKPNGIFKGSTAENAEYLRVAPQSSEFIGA

[8] = test system: Ba/F3 EGFR NPH ins cells; test: Cell proliferation, Ba/F3 EGFR NPH ins (CellTiter-Glo, 72 h); details: Ba/F3 EGFR, 72 h, Ba/F3 EGFR NPH ins, 72 h proliferation; read-out: EGFR Exon20 NPH insertion GI50;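 further: IL3-independent cells carrying constitutively phosphorylated EGFR, compound dilution series, viable cells quantified by ATP luminescence, growth relative to DMSO wells after subtracting pre-dosing (day 0) baseline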
[9] = molecular target: T3, human Her2 exon 20 insertion mutation YVMA (Homo sapiens, UniProt P04626, INS775YVMA); test: Her2 Exon 20 YVMA insertion cellular phosphorylation inhibition (MSD p-Her2 Y1248/total Her2); details: Her2 YVMAins cells, 4 h compound;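 further: lentivirally transduced NIH-3T3 cells in 1% FBS medium, electrochemiluminescent MSD read-out, graded compound concentrations at 37 °C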
T3 construct: expressed in transfected cells; host or cells: NIH-3T3, lentiviral transduction, puromycin selection
T3 sequence (P04626 with tags, fused parts or gaps INS775YVMA): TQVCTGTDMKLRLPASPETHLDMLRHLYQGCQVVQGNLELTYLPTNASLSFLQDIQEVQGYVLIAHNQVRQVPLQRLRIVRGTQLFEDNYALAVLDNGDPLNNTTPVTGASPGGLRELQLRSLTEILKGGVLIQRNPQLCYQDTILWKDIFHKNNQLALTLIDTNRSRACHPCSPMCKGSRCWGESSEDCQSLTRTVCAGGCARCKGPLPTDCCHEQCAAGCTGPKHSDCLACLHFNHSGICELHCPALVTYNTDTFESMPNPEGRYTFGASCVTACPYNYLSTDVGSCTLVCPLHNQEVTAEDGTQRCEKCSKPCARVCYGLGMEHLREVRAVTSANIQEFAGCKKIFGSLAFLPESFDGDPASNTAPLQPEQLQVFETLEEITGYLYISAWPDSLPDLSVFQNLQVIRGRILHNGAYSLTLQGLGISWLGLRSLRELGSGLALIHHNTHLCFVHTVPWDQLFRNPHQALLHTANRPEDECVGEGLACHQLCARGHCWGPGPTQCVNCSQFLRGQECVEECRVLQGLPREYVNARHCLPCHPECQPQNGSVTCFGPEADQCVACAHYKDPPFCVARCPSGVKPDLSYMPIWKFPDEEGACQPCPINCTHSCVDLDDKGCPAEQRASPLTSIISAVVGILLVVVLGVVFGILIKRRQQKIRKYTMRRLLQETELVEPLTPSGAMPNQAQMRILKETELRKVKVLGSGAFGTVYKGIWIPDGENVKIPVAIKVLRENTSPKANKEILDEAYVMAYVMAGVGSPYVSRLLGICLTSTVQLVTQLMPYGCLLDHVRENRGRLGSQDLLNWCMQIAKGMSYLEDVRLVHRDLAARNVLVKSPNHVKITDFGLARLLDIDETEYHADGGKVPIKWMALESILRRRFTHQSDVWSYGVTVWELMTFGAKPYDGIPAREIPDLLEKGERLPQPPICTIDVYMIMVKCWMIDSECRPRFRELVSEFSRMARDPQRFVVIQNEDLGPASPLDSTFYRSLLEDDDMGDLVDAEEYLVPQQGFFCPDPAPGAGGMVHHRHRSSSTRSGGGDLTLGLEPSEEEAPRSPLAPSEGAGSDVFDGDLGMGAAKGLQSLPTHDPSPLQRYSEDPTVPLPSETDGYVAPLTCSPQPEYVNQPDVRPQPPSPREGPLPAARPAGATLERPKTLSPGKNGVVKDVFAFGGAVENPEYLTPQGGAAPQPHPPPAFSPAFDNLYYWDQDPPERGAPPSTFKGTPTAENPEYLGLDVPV

[10] = test system: OCI-LY-10 cells; test: BTK (wt) cell proliferation, OCI-LY-10 (CellTiter-Glo, 72 h); details: Homo sapiens, OCI-Ly10, 72 h, OCI-LY-10 cells, 72 h, CellTiter-Glo; read-out: BTK WT OCI-LY-10 GI50;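 further: viable cells quantified via cellular ATP luminescence, proliferation given as percent of DMSO control after subtracting a duplicate plate read at time of dosing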
[11] = test system: WT EGFR cell line A-431; test: Cell proliferation, WT EGFR A431 (CellTiter-Glo, 72 h); details: Homo sapiens, A-431, 72 h, A431, 72 h proliferation; read-out: EGFR WT A431 GI50;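 further: proliferation from a luminescent ATP viability signal, expressed as 100 × (treated minus time-zero plate) over (DMSO control minus time-zero plate), cells grown with 10% FBS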
[12] = molecular target: T4, WT EGFR (Homo sapiens, UniProt P00533); test: WT EGFR cellular phosphorylation inhibition in A-431 (hEGF stimulated, MSD); details: A431 cells, 4 h compound, then 100 ng/ml hEGF 10 min;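 further: electrochemiluminescence read-out of EGFR Tyr1068 phosphorylation expressed as ratio to total EGFR, cells kept in medium with 1% FBS, compounds tested as a concentration series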
T4 construct: host or cells: A-431

[13] = test system: Her2 exon 20 insertion YVMA transduced NIH-3T3 cell line; test: Cell proliferation, Her2 YVMAins NIH-3T3 (CellTiter-Glo, 72 h); details: Mus musculus, NIH3T3, 72 h, Her2 YVMAins cells, 72 h proliferation; read-out: Her2 Exon 20 YVMA insertion GI50;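 further: viable cells quantified by ATP luminescence, growth over a day-zero baseline plate expressed as percent of DMSO control growth, compound dilution series in 10% FBS medium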
[14] = molecular target: T5, EGFR L858R&T790M (Homo sapiens, UniProt P00533, L858R/T790M); test: EGFR L858R and T790M cellular phosphorylation inhibition in NCI-H1975 (MSD); details: NCI-H1975 cells, 4 h compound, p-EGFR(Y1068)/total EGFR; read-out: EGFR L858R and T790M mutation IC50;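 further: phosphorylated and total EGFR detected by electrochemiluminescence, cells exposed to compound in medium containing 1% FBS at 37 °C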
T5 construct: host or cells: NCI-H1975
T5 sequence (P00533 25-1210 T790M/L858R): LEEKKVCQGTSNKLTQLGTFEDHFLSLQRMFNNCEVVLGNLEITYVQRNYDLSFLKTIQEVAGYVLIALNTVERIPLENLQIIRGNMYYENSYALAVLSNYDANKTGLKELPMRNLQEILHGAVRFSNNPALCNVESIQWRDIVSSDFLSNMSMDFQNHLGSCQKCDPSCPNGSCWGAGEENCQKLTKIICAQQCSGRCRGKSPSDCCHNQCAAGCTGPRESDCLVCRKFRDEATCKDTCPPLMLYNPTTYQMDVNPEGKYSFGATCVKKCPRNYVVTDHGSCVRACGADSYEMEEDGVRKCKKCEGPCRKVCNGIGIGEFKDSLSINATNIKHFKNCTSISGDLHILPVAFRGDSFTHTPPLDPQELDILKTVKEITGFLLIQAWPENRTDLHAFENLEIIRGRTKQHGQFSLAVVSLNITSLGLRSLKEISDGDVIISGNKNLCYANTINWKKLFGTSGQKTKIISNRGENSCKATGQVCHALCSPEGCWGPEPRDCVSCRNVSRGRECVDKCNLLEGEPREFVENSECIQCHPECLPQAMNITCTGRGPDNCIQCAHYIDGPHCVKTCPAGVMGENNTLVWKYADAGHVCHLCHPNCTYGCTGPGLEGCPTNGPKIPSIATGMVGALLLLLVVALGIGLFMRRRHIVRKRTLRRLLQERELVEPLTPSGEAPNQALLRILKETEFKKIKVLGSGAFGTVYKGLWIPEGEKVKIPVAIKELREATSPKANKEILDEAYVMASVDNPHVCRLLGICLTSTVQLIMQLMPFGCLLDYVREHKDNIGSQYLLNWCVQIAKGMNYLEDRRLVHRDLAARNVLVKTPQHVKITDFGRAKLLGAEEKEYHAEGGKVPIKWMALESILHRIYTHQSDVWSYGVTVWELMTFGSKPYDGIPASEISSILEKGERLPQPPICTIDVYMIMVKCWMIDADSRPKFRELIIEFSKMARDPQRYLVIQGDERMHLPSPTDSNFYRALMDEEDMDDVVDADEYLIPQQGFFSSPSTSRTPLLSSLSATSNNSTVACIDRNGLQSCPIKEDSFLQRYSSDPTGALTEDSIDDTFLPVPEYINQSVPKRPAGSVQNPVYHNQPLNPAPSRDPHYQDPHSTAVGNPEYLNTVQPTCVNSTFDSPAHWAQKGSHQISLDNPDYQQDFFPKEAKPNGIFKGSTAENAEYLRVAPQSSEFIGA

SMILES | GI50 [1] | IC50 [2] | GI50 [3] | GI50 [4] | GI50 [5] | GI50 [6] | IC50 [7] | GI50 [8] | IC50 [9] | GI50 [10] | GI50 [11] | IC50 [12] | GI50 [13] | IC50 [14]
C=CC(=O)Nc1cc(Nc2ncnc(Nc3cc(F)c(C4CC4)cc3C(C)(C)O)n2)c(OC)cc1N(C)CCN(C)C [Compound 34, N-(5-(4-(4-cyclopropyl-5-fluoro-2-(2-hydroxypropan-2-yl)phenylamino)-1,3,5-triazin-2-ylamino)-2-((2-(dimethylamino)ethyl)(methyl)amino)-4-methoxyphenyl)acrylamide] | 17.6 nM | 6.2 nM | > 3000 nM | 16.6 nM | 12.3 nM | 1.6 nM | 4.4 nM | 16.4 nM | 4.2 nM | 7.6 nM | 7.5 nM | 6 nM | 21.1 nM | 0.5 nM
C=CC(=O)Nc1cc(Nc2ncnc(Nc3ccc(F)c(F)c3C(C)(C)O)n2)c(OC)cc1N(C)CCN(C)C [Compound 9, N-(5-(4-(3,4-difluoro-2-(2-hydroxypropan-2-yl)phenylamino)-1,3,5-triazin-2-ylamino)-2-((2-(dimethylamino)ethyl)(methyl)amino)-4-methoxyphenyl)ac rylamide] | 191 nM | 51.3 nM | > 3000 nM | 700 nM | 551 nM | 44.6 nM | 62.5 nM | 180 nM | 13.9 nM | 309 nM | 83.1 nM | 131 nM | 156 nM | 2 nM
C=CC(=O)Nc1cc(Nc2ncnc(Nc3cc(F)c(C4CC4)cc3C(C)(C)O)n2)c(OC)cc1N1CCC[C@@H]1CN(C)C [Compound 46, (R)-N-(5-(4-(4-cyclopropyl-5-fluoro-2-(2-hydroxypropan-2-yl)phenylamino)-1,3,5-triazin-2-ylamino)-2-(2-((dimethylamino)methyl)pyrrolidin-1-yl)-4-methoxyphenyl)acrylamide] | 8.2 nM | 2.5 nM | 2580 nM | 6.49 nM | 0.9 nM | 1.4 nM | 6.4 nM | 18.8 nM | 1.7 nM | 2.97 nM | 4.5 nM | 8.7 nM | 16.8 nM | 0.2 nM
C=CC(=O)Nc1cc(Nc2ncnc(Nc3cc(Cl)c(F)cc3C(C)(C)O)n2)c(OC)cc1N1CCOC[C@@H]1CN(C)C [Compound 40, (S)-N-(5-(4-(5-chloro-4-fluoro-2-(2-hydroxypropan-2-yl)phenylamino)-1,3,5-triazin-2-ylamino)-2-(3-((dimethylamino)methyl)morpholino)-4-methoxyphenyl)acrylamide] | 25.7 nM | 10.9 nM | > 3000 nM | 11.9 nM | 15.1 nM | 2.1 nM | 13 nM | 22 nM | 5 nM | 15.1 nM | 13.6 nM | 19.3 nM | 43.4 nM | 0.9 nM
C=CC(=O)Nc1cc(Nc2ncnc(Nc3cc(Cl)c(F)cc3C(C)(C)O)n2)c(OC)cc1N(C)C[C@H]1CCCN1C [Compound 30, (R)-N-(5-(4-(5-chloro-4-fluoro-2-(2-hydroxypropan-2-yl)phenylamino)-1,3,5-triazin-2-ylamino)-4-methoxy-2-(methyl((1-methylpyrrolidin-2-yl)methyl)amino)phenyl) acrylamide] | 25.9 nM | 11.1 nM | > 3000 nM | 28.6 nM | 17.8 nM | 3.7 nM | 5.7 nM | 19.3 nM | 5.5 nM | 13.1 nM | 12.4 nM | 13.2 nM | 47.5 nM | 0.5 nM
C=CC(=O)Nc1cc(Nc2ncnc(Nc3cc(F)c(Cl)cc3C(C)(C)O)n2)c(OC)cc1N1CC[C@@H]2CN(C)C[C@@H]21 [Compound 41, N-(5-(4-(4-chloro-5-fluoro-2-(2-hydroxypropan-2-yl)phenylamino)-1,3,5-triazin-2-ylamino)-4-methoxy-2-((3aR,6aR)-5-methylhexahydropyrrolo[3,4-b]pyrrol-1 (2H)-yl)phenyl)acrylamide] | 21.8 nM | 12.6 nM | > 3000 nM | 4.92 nM | 4.57 nM | 1.6 nM | 6.7 nM | 23.2 nM | 9 nM | 1.57 nM | 13.8 nM | 13.1 nM | 52.1 nM | 0.8 nM
C=CC(=O)Nc1cc(Nc2ncnc(Nc3cc(Cl)c(F)cc3C(C)(C)O)n2)c(OC)cc1N1CCC[C@@H]1CN(C)C [Compound 31, (R)-N-(5-(4-(5-chloro-4-fluoro-2-(2-hydroxypropan-2-yl)phenylamino)-1,3,5-triazin-2-ylamino)-2-(2-((dimethylamino)methyl)pyrrolidin-1-yl)-4-methoxyphenyl)acrylamide] | 9.2 nM | 13.8 nM | > 3000 nM | 59.9 nM | 7.18 nM | 4.2 nM | 5 nM | 47.9 nM | 4.3 nM | 30 nM | 4.2 nM | 5.5 nM | 60.1 nM | 0.5 nM
C=CC(=O)Nc1cc(Nc2ncnc(Nc3cc(Cl)c(F)cc3C(C)(C)O)n2)c(OC)cc1N(C)CCN1CCCCC1 [Compound 26, N-(5-(4-(5-chloro-4-fluoro-2-(2-hydroxypropan-2-yl)phenylamino)-1,3,5-triazin-2-ylamino)-4-methoxy-2-(methyl(2-(piperidin-1-yl)ethyl)amino)phenyl)acrylamide] | 99.5 nM | 43.5 nM | > 3000 nM | 50.5 nM | 12.6 nM | 32.4 nM | 40.5 nM | 123 nM | 9.5 nM | 45.3 nM | 57.8 nM | 103 nM | 253 nM | 1.3 nM
C=CC(=O)Nc1cc(Nc2ncnc(Nc3cc(Cl)c(F)cc3C(C)(O)CC)n2)c(OC)cc1N1CCC[C@@H]1CN(C)C (stereo partly drawn) [Compound 63, N-(5-(4-(5-chloro-4-fluoro-2-(2-hydroxybutan-2-yl)phenylamino)-1,3,5-triazin-2-ylamino)-2-((R)-2-((dimethylamino)methyl)pyrrolidin-1-yl)-4-methoxyphenyl)acrylamide] | 13.6 nM | 5.9 nM | > 3000 nM | 14.9 nM | 11.6 nM | 1.1 nM | 6.4 nM | 17.2 nM | 1.4 nM | 63.3 nM | 4.4 nM | 14.3 nM | 23.6 nM | 0.4 nM
C=CC(=O)Nc1cc(Nc2ncnc(Nc3cc(F)c(F)cc3C(C)(C)O)n2)c(OC)cc1N(C)C[C@H]1CCCN1C [Compound 20, (R)-N-(5-(4-(4,5-difluoro-2-(2-hydroxypropan-2-yl)phenylamino)-1,3,5-triazin-2-ylamino)-4-methoxy-2-(methyl((1-methylpyrrolidin-2-yl)methyl)amino)phenyl)acrylamide] | 30.8 nM | 25.3 nM | > 3000 nM | 56.2 nM | 103 nM | 7.7 nM | 9.4 nM | 51.5 nM | 11.3 nM | 99.8 nM | 16.5 nM | 27.2 nM | 68.1 nM | 0.5 nM
